Results as given in patent publication US8080246B2, “Colony stimulating factor 1 receptor (CSF1R) extracellular domain fusion molecules” (Five Prime Therapeutics, Inc., priority 2008, dated 2011).
Where two headings read alike, the source gives them in different places.

Experiments:
EAE mouse model = settings: for reduction in the EAE clinical score: relative to vehicle
Experimental: The CSF1R ECD fusion molecules were also tested for their ability to inhibit MS disease pathology in a mouse model of MS. These experiments used the mouse experimental autoimmune encephalomyelitis (EAE) model, which is widely used as a model of MS in humans. See, for example, Steinman and Zamvil, TRENDS in Immunology, 26(11):565-571 (2005). In the EAE model, disease progression and associated pathology may be measured according to the following EAE clinical score: no clinical disease (Score: 0); tail flaccidity (Score: 1); hind limb weakness (Score: 2); hind limb paralysis (Score: 3); forelimb paralysis or loss of ability to right from supine (stand up from a supine position) (Score: 4); and moribund (near death) or dead (Score: 5). […] The mCSF1R.506-Fc fusion protein (m506) was tested to determine whether it could decrease the EAE clinical scores or body weight loss. The mCSF1R.506-Fc fusion protein (SEQ ID NO.:8) was expressed and purified from the culture media of CHO cells stably transfected with the mCSF1R.506-Fc/pDEF38 plasmid vector as described in Example 2.
For the EAE mouse model experiments, 60 female C57BL/6 mice, age […], were divided into five groups: • Group 1: Vehicle control (Vehicle) (phosphate buffered saline, PBS), 100 μl, i.p., 3 times a week for up to 7 weeks; • Group 2: Methotrexate positive control (MTX), 10 mg/kg, i.v., q3d for up to 7 weeks; • Group 3: mCSF1R.506-Fc, 1 mg/kg, i.p., 3 times a week for up to 7 weeks; • Group 4: mCSF1R.506-Fc, 10 mg/kg, i.p., 3 times a week for up to 7 weeks; • Group 5: mCSF1R.506-Fc, 20 mg/kg, i.p., 3 times a week for up to 7 weeks.
Each group consisted of 12 mice. EAE induction was performed according to the following protocol: 300 ug of myelin oligodendrocyte glycoprotein (MOG)35-55 peptide was dissolved in 100 ul PBS and emulsified in an equal volume of complete Freund's adjuvant (CFA) containing 5 mg/ml Mycobacterium tuberculosis H37 RA. The emulsion (200 ul) was injected subcutaneously into the flank of the mice on days 0 and 7. Pertussis toxin (500 ng in 500 ul of PBS; List Biological Labs) was administered intravenously into each tail vein on days 0 and 2.
The MTX (10 mg/kg) was administered intravenously once every 3 days (q3d) for up to seven weeks starting on day 0; mCSF1R.506-Fc (1 mg/kg, 10 mg/kg, or 20 mg/kg), or vehicle (PBS) was administered intraperitoneally to the EAE mice in a 0.2 ml volume three times per week for 45 days, starting on day 0. The EAE clinical scores were measured prior to each dosing of PBS, MTX, or mCSF1R.506-Fc, using the above-mentioned scoring system. Body weights were recorded on day 0 before treatment was initiated, and were then measured at least twice per week including the day the study was terminated for seven weeks (on days 0, 2, 6, 8, 10, 13, 16, 17, 20, 22, 24, 27, 29, 31, 34, 36, 38, 41, 43, and 45).

CIA mouse model [1] = test: Mouse collagen-induced arthritis (CIA) model, Example 9; type: in vivo; settings: relative to vehicle, p<0.01
CIA mouse model [2] = test: Mouse collagen-induced arthritis (CIA) model, Example 13 (clinical score, histology, serum PYD); type: in vivo; settings: for clinical arthritis scores: FIG. 9; for serum pyridinoline (PYD) levels: vs vehicle control, ELISA, FIG. 12
[3] = tested on: CD115+ GR1- monocytes in the spleen; test: Depletion of CD115+ GR1- monocytes from spleen (flow cytometry); type: in vivo, mouse; settings: DBA1 mice, 20 mg/kg i.p. 3 times per week, two weeks
Experimental: Male DBA1 mice were administered i.p. 3 times per week with saline or mCSF1R.506-Fc protein (SEQ ID NO:34) at 20 mg/kg. After two weeks of treatment, spleens were harvested for analysis of monocytes by flow cytometry as described (Liu et al., Science 324: 392 (2009)). Cells were stained at 4° C. in PBS with 5% (vol/vol) FBS. An LSR II (Becton Dickinson) was used for multiparameter flow cytometry of stained cell suspensions, followed by analysis with FlowJo software (TreeStar).

human primary monocytes = test: Human monocyte viability (CellTiter-Glo ATP); type: cell-based; settings: four days incubation; ATP levels; protein from 293-6E cells; read-out: IC50, inhibition of human monocyte viability
Experimental: Primary monocytes were isolated from human peripheral blood mononuclear cells (PBMC) through size sedimentation over Percoll columns as described (de Almeida et al., Mem Inst Oswaldo Cruz 95(2):221-223, (2000)). In this experiment, 1×10^4 freshly isolated human primary monocytes per well of a 96-well plate were incubated with the hCSF1R.506-GS-Fc or hCSF1R.512-GS-Fc fusion protein (0.01-120 nM) and the cells were incubated at 37° C. with 5% CO2. After four days, ATP levels in the cells were determined using the CellTiter-Glo Luminescent Cell Viability Assay Kit (Promega, Cat. No. G7571), according to the manufacturer's instructions, as a measurement of cell viability.

CSF1 = molecular target: T1, CSF1 (Homo sapiens, UniProt P09603); test: Biacore SPR CSF1 ligand binding affinity and kinetics; settings: proteins expressed in CHO cells; Biacore (Table 4)
T1 sequence (P09603 33-554): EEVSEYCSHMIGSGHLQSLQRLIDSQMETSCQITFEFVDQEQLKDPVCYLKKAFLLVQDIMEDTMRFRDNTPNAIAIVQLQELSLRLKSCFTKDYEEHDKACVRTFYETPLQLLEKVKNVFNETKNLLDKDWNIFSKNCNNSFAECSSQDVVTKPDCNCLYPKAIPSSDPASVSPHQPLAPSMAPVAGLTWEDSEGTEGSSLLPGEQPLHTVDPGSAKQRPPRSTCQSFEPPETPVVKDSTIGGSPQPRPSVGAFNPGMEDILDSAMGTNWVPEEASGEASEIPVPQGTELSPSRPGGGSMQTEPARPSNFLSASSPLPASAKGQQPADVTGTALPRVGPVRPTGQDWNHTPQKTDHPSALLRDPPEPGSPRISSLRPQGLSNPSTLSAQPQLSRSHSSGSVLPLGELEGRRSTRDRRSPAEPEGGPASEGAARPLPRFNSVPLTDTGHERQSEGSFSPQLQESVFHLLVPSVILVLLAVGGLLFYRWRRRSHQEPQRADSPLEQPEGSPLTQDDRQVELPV
Experimental: The CSF1 and IL34 ligand binding affinity and kinetics of the hCSF1R.506-GS-Fc and hCSF1R.512-GS-Fc fusion proteins were determined using Biacore® X surface plasmon resonance (SPR) technology (Uppsala, Sweden). CSF1 and IL34 are the only two ligands known to interact with the CSF1R ECD. The CSF1 and IL34 binding experiments were carried out using methodology similar to that described in Lin et al., Science 320:807-811, (2008).
In order to compare the relative ligand binding affinity of hCSF1R.506 (SEQ ID NO:2) and hCSF1R.506-Fc (SEQ ID NO:6) proteins expressed in CHO cells to CSF1, a Biacore® assay was used.

[4] = tested on: peripheral blood monocytes (F4/80+, CD11b+); test: Depletion of mouse monocytes from peripheral blood after minicircle DNA tail vein transfection; type: in vivo; settings: C57BL/6 mouse; 30 ug minicircle DNA by hydrodynamic tail vein transfection; about three weeks; vs saline
Experimental: The mCSF1R.506-GS-Fc fusion protein (SEQ ID NO.:34) was expressed in vivo to determine whether it could deplete mouse monocytes from peripheral blood as a measure of in vivo biological activity. For these experiments, the minicircle DNA vector (mCSF1R.506-GS-Fc/p2xC31MasterSfi) containing the polynucleotides encoding mCSF1R.506-GS-Fc described in Example 1 was employed. For these experiments, 30 ug of CSF1R.506-GS-Fc-encoding minicircle DNA was injected into a C57BL/6 mouse tail vein by hydrodynamic tail vein transfection (TVT) as described (Ozaki et al., J Immunol, 173(9):5361-5371 (2004)). Saline was injected as a negative control. Approximately three weeks after the tail vein injection, peripheral blood cells were isolated and monocyte levels were determined using FACS analysis with anti-CD11b and anti-F4/80 antibodies according to the manufacturer's instruction (BD Biosciences) to detect monocyte marker-positive cells (F4/80^+, CD11b^+).

mCSF1R.506-Fc: Mouse CSF1R ECD lacking the five C-terminal residues fused to an Fc; SEQ ID NO. 8
reduction in the EAE clinical score (EAE mouse model; 1 mg/kg i.p. 3 times a week, p<0.001): 55% | reduction in the EAE clinical score (EAE mouse model; 10 mg/kg i.p. 3 times a week, p<0.01): 40% | reduction in the EAE clinical score (EAE mouse model; 20 mg/kg i.p. 3 times a week, p<0.001): 78% | higher body weight relative to vehicle control (EAE mouse model; EAE mice, average of three doses (1, 10, 20 mg/kg), p<0.01-0.001): 8% | reduction of CIA arthritis score (CIA mouse model [1]; 20 mg/kg i.p. daily for 34 days): about 75% | inflammation, pannus formation, cartilage damage, bone resorption scores (CIA mouse model [2]; 2 mg/kg, 6 mg/kg and 20 mg/kg, compared to vehicle treated mice, FIG. 11): significantly decreased inflammation, pannus formation, cartilage damage, and bone resorption | clinical arthritis scores (CIA mouse model [2]; 2, 6 and 20 mg/kg i.p., dose-dependent): significantly reduced clinical arthritis scores | pannus formation, cartilage damage, bone resorption in histologic joint sections (CIA mouse model [2]; CIA mice, FIG. 10): significantly decreased pannus formation, cartilage damage, and bone resorption | serum pyridinoline (PYD) levels (CIA mouse model [2]; CIA mice): significantly lower | decrease in number of CD115+GR1- cells per spleen ([3]; FIG. 14): more than 50% | CD115+GR1- monocytes in the spleen ([3]; vs saline, FIG. 13): significant reduction

hCSF1R.512-GS-Fc: Full-length human CSF1R ECD fused to GS-Fc; SEQ ID NO. 31
IC50 (human primary monocytes): 0.0175 µM

ENBREL® [reference compound]
inhibition of CIA arthritis score (CIA mouse model [1]; 10 mg/kg i.p. twice weekly for 34 days): about 40% | clinical arthritis scores (CIA mouse model [2]; 10 mg/kg i.p. daily): inhibited clinical scores | serum pyridinoline (PYD) levels (CIA mouse model [2]; CIA mice): not significant statistically

hCSF1R.506: human CSF1R ECD corresponding to SEQ ID NO.:2 (amino acids 1-506), without fusion partner
Kd (CSF1): 0.0289 µM | ka, binding to CSF1 (CSF1): 2.80E+04 l/Ms | kd, binding to CSF1 (CSF1): 0.000809 s⁻¹

CN(Cc1cnc2nc(N)nc(N)c2n1)c1ccc(C(=O)N[C@@H](CCC(=O)O)C(=O)O)cc1 [MTX, Methotrexate, reference compound]
reduction in the EAE clinical score (EAE mouse model; 10 mg/kg i.v. q3d, p<0.001): 95%

mCSF1R.506-GS-Fc: Mouse CSF1R ECD lacking the five C-terminal residues fused to GS-Fc; SEQ ID NO. 34
monocyte marker-positive cells (F4/80+, CD11b+) in peripheral blood [4]: depletion of mouse monocytes from peripheral blood

hCSF1R.506-GS-Fc: Human CSF1R ECD lacking the six C-terminal residues fused to GS-Fc; SEQ ID NO. 32
IC50 (human primary monocytes): 0.0088 µM
